Assay results published in US20110072541A1, “MARKER FREE TRANSGENIC PLANTS ENGINEERING THE CHLOROPLAST GENOME WITHOUT THE USE OF ANTIBIOTIC SELECTION” (priority 2000, published 2011).
“Also recorded” adds a separate entry of the source. Counter-ions that a name gives are not always drawn.

Experiments:
[1] = tested on: untransformed N. tabacum Petit Havana leaf discs; assay: Toxicity of the selection agent to untransformed control leaf discs; assay type: cell-based, Nicotiana tabacum; details: for effect on leaf discs under selection: RMOP selection medium
From the text: A. N. tabacum Petit Havana control in RMOP medium containing spectinomycin after 45 days. B. Bombarded leaf discs selected on spectinomycin in RMOP medium after 45 days. C. Spectinomycin resistant clones cultured again ([…]) to obtain homoplasmy. D. Petit Havana control in RMOP medium containing betaine aldehyde after 12 days of culture. E. Bombarded leaf discs selected on betaine aldehyde in RMOP medium after 12 days of culture; arrow indicates unbombarded leaf disc as control. Note that 23 shoots are formed on a disc selected on betain aldehyde against 1-2 shoots per disc on spectinomycin. F. Betaine aldehyde resistant clones cultured again (second round) to obtain homoplasmy. G. Selection on 10 mM betaine aldehyde of untransformed (1) and transgenic (2-4) leaf discs.
(§1) Leaves were placed abaxial side up on Whatman No. 1 filter papers laying on the RMOP medium (Daniell 1993) in standard petri plates (100×15 mm) for bombardment. Microprojectiles were coated with plasmid DNA (pLD-BADH) and bombardments were carried out with the biolistic device PDS 1000/He (Bio-Rad) as described by Daniell (1997). Following bombardment, petri plates were sealed with parafilm and incubated at 24° C. under 16 hour photoperiod. Two days after bombardment, leaves were chopped into small pieces of ˜5 mm^2 in size and placed on the selection medium (RMOP containing 500 μg/ml of spectinomycin dihydrochloride or 5-10 mM betaine aldehyde) with abaxial side touching the medium in deep (100×25 mm) petri plates. The regenerated resistant shoots were chopped into small pieces (˜2 mm^2) and subcloned into fresh deep petri plates containing the same selection medium. Resistant shoots from the second culture cycle were transferred to the rooting medium (MSO medium supplemented with IBA, 1 mg/liter containing appropriate selectable marker). Rooted plants were transferred to soil and grown at 26° C. under 16 hour photoperiod.
(§2) The entire process of regeneration, starting from bombardment until transfer to soil, takes about 3-6 months for spectinomycin selection and 2-3 months for betaine aldehyde selection. FIG. 3 and Table 1 show differences between the two selection processes. […] Leaf disks in FIG. 3 under betaine aldehyde selection appear partially green because they were photographed 12 days after the initiation of the selection process whereas the disc photographed on spectinomycin were 45 days after initiation of the selection process. In spite of the short period of selection one leaf disk was almost bleached (FIG. 3D) and all of them were killed after 30 days. Under 10 mM betaine aldehyde selection, control untransformed samples were killed (turned black, 3G-1) whereas transgenic leaves produced new shoots (FIG. 3G, 2-4).

[2] = tested on: resistant tobacco clones; assay: PCR screening of resistant clones for chloroplast integration; parameters: species or system Nicotiana tabacum
From the text: Integration of a foreign gene into the chloroplast genome was confirmed by PCR screening of chloroplast transformants (FIG. 4). Primers were designed to eliminate mutants, nuclear integration and to determine whether the integration of foreign genes had occurred in the chloroplast genome at the directed site by homologous recombination. The strategy to distinguish between nuclear and chloroplast transgenic plants was to land one primer (3P) on the native chloroplast genome adjacent to the point of integration and the second primer (3M) on the aadA gene (FIG. 1). This primer set generated 1.6 kb PCR product in chloroplast transformants (FIG. 4). Because this product cannot be obtained in nuclear transgenic plants, the possibility of nuclear integration can be eliminated. […] The rest of the resistant shoots may be either escapes or nuclear transformants. […] In contrast, nearly 60% of the spectinomycin resistant clones were mutants. Other labs have recently reported as high as 90% mutants among spectinomycin resistant clones (Eibl et al. 1999; Sidorov et al. 1999).

[3] = tested on: Tobacco (Nicotiana tabacum var. Petit Havana) leaf discs; assay: Selection of bombarded tobacco leaf discs on RMOP selection medium (chloroplast transformation with pLD-BADH); assay type: cell-based; details: for time until resistant clones formed green shoots: after initiation of selection; for leaf discs responded / resistant shoots per responding leaf disk: bombarded leaf discs under selection; for average resistant shoots per plate: spectinomycin after 45 days; for resistant shoots regenerated overall: ten bombardments (spectinomycin), six bombardments (betaine aldehyde)
From the text: Expression cassettes of the chloroplast integration vector contain the chimeric aadA gene and the BADH gene driven by the constitutive 16S rRNA promoter and regulated by the 3′ untranslated region of the plastid psbA gene. The chimeric aadA gene encoding aminoglycoside 3′ adenyltransferase confers spectinomycin resistance in chloroplasts enabling selection of the transformants on spectinomycin dihydrochloride. On the other hand, BADH converts the toxic betaine aldehyde in cells to glycine betaine. When present, this pathway is compartmentalized within chloroplasts (Nuccio, et al. 1999). To facilitate translation of the dicistronic mRNA, independent Shine-Dalgarno (SD) sequences were provided to the aadA and BADH genes upstream of the initiation codons. In order to accurately compare transformation efficiency of both selectable markers under identical bombardment and transformation conditions, aadA and BADH genes were inserted into the same vector, at the same site. Bombarded leaves were treated in identical manner except the addition of selection reagent.
Tobacco (Nicotiana tabacum var. Petit Havana) was grown aseptically by germination of seeds in MSO medium. This medium contains MS salts (4.3 g/liter), B5 vitamin mixture (myoinositol, 100 mg/liter; thiamine-HCl, 10 mg/liter; nicotinic acid, 1 mg/liter; pyridoxine-HCl, 1 mg/liter), sucrose (30 g/liter) and phytagar (6 g/liter) at pH 5.8. Fully expanded, dark green leaves of about two month old plants were used for bombardment.
as §1, §2
When the leaf discs were selected for spectinomycin resistance, only 15% of the discs responded and an average of one resistant shoot per plate was observed after 45 days. From each callus, all resistant shoots are considered to represent an individual clone. Under betaine aldehyde selection 80% of the discs responded and an average of 25 resistant shoots per plate was observed. […]

[4] = tested on: tobacco seeds; assay: Seed germination on medium containing the selection agent; assay type: in vivo, Nicotiana tabacum
From the text: Lack of pleiotropic effects. […] They grew normally, flowered and set seeds. […] […] This may be due to the presence of an active endogenous BADH or similar enzymatic activity in non-green plastids during germination.

[5] = tested on: resistant tobacco clones; details: Eibl et al. 1999; Sidorov et al. 1999; cited from earlier work

C[N+](C)(C)CC=O [betaine aldehyde]
effect on untransformed leaf discs ([1]; 10 mM betaine aldehyde): death of untransformed leaf disc; also recorded: killed
time after which all control leaf disks were killed ([1]; Petit Havana control in RMOP with betaine aldehyde): 30 days
effect on leaf discs under selection [1]: growth of the leaf discs was completely inhibited and photosynthetic pigments were degraded
resistant clones with foreign genes integrated into the chloroplast genome (PCR) ([2]; after the first culture cycle): 11 out of 15
entire process of regeneration, bombardment until transfer to soil [3]: 2-3 months
time until resistant clones formed green shoots [3]: ≤ 12 days
efficiency of transformation relative to spectinomycin selection ([3]; betaine aldehyde vs spectinomycin selection): 25 fold
leaf discs responded [3]: 80%
resistant shoots per responding leaf disk [3]: ≤ 23
resistant shoots per responding leaf disk ([3]; listed as betain aldehyde): 23
average resistant shoots per plate [3]: 25
resistant shoots regenerated overall [3]: more than 150
germination of untransformed seeds ([4]; betaine aldehyde 10-15 mM): germinated

CN[C@@H]1[C@H](O)[C@H](NC)[C@H]2O[C@@]3(O)C(=O)C[C@@H](C)O[C@H]3O[C@@H]2[C@H]1O [Spectinomycin, spectinomycin dihydrochloride]
effect on leaf discs under selection [1]: leaf discs continued to grow but pigments were bleached
mutants among resistant clones ([2]; applicant's clones): ~60%
mutants among resistant clones, other labs [5]: ≤ 90%
entire process of regeneration, bombardment until transfer to soil [3]: 3-6 months
time until resistant clones formed green shoots [3]: about 45 days
leaf discs responded [3]: 15%
average resistant shoots per plate [3]: one
resistant shoots regenerated overall [3]: 10
germination of seeds from chloroplast transgenic plants ([4]; MS medium, 500 μg/ml spectinomycin): germinated and grew normally
